Assay results taken from patent US20040110247A1, “New molecular tools for the rapid assessment of the presence and viability of microorganisms and methods of use” (priority 2002, published 2004).

What was measured:
Type in all cases: cell-based
[1] = system: Wild-type (wt) Streptococcus gordonii; experiment: RT-qPCR of 16S rRNA after drug exposure; settings: reverse transcription of 16S rRNA from total RNA, then qPCR
Description: (§1) 1) Strains and growth conditions: Wild-type (wt) and penicillin tolerant (Tol) Streptococcus gordonii (I. Caldelari et al., Antimicrobial Agents and Chemotherapy, 2000, 44(10):2802-2810) were grown at 37 degrees Celsius, either in brain heart infusion broth (BHI) without aeration, or on Columbia agar supplemented with 3% blood. Quantitative culture was performed by plating serial dilutions of bacterial cultures taken at various time points on penicillinase-containing blood-agar plates. Colonies counts were determined after incubation for […] at 37° C.
(§2) 3) Extraction and purification of bacterial DNA and RNA: (i) Total DNA from 3 ml of culture samples was extracted and purified using the DNeasy Tissue Kit according to the instructions of the manufacturer (Qiagen). […] Total RNA concentrations were determined by spectrophotometry and quality checked on 1% MOPS-agarose gels. […]
(§3) 4) Quantitative Real-Time PCR was performed using the following probe FAM-5′-TTGCACCACTACCAGATGGAC CTGC-3′-TAMRA (SEQ ID NO:3) according to the instruction of the manufacturer (Perkin-Elmer) on Sequence Detection System 5700 (Perkin-Elmer) in a total volume of 50 μl 1×PCR buffer (Gibco) containing 25 pmoles of each primer, […] of fluorescent probe, […] each dNTP and 1.5 UI of Taq DNA polymerase (Gibco). […]

[2] = system: penicillin tolerant (Tol) Streptococcus gordonii; experiment: RT-qPCR of 16S rRNA after drug exposure, tolerant mutant control; settings: same system, Tol as control
Description: as §1, §2, §3

[3] = system: Wild-type (wt) Streptococcus gordonii; experiment: Quantitative culture (colony counts) of drug-exposed S. gordonii cultures
Description: as §1

penicillin
16S rRNA amplicons (viability marker) during drug-induced killing [1]: decreased proportionally to cell death | ribosomal RNA amplicons in penicillin-tolerant mutant Tol [2]: remained stable and proportional to viable bacteria | loss of viability ([3]; after addition of penicillin, up to 50 hours): 5 log CFU/ml | loss of viability ([3]; cultures dramatically killed with penicillin (qualitative PCR experiment)): > 3 log CFU/ml
